The source of these data is patent US10822656B2, “Methods and systems for high-throughput toxicity screening of a compound using mahalanobis values” (priority 2017, dated 2020).

This data set concerns human hepatocytes (cell lines Hu1153, Hu1154, Hu1156, Hu1164). Nature of the data set: Transcriptomics Mahalanobis distance (MD) toxicity analysis of hepatocytes exposed in-vitro. It is filed as cell-based. The procedure:
In one embodiment, four human donors were used to provide four independent cell lines of hepatocytes.
A number of the 192 genes were analyzed using more than one probe and as a result there were 465 different measurements or variables for each experiment. […] PPARα are nuclear receptor proteins of the hepatocyte that regulate gene expression through transcription factors and are essential in the regulation of lipid metabolism.
The MD is calculated as follows (Taguchi & R. Jungulum, 2002): MDj−Dj^2=Z′ijC^−1Zij, and Equation 1: Zij=(Xij−mi)/si Equation 2: Xij=value of the ith characteristic (gene) of the jth observation (experiment) mi=mean of the ith characteristic (gene) si=standard deviation of the ith characteristic (gene) Zij=(z1j, z2j, z3j, . . . , zkj) standardized vector of the standardized values of the Xij Zij′=transpose of the Zij standardized vector C^−1=inverse of the correlation matrix k=total number of gene measurements (e.g. 465 variables).
Data must be collected to identify the reference group from the unstressed cells. […] The MS will be determined by the normal group's mean and standard deviation vector, and the correlation matrix. The reference group will be referred to as the healthy/normal group. This is the most important aspect of the approach, as this MS will be the reference point in n-space. It is used to compare stressed hepatocyte data collected from the perturbed experiments. The measurement scale extends from the centroid of the MS and is typically one unit distance away. The centroid of the MS is the zero point for the measurement scale. The larger the Mahalanobis distance (MD) number the further it is from the centroid of the Mahalanobis space and the higher the risk from exposure. The Mahalanobis distance for each perturbed experiment will be derived from information describing the MS and will be shown below. The MD is a value that describes the relationship between the normal group and the experiment. As hepatocyte cells are stressed by varying concentrations and times of exposure, the same variables that were measured to establish the MS for the normal group will be used to determine a MD number for the experimental data. […] This MD number will be indicative of the experiments generalized distance from the centroid of the healthy/normal group. As concentration and time of exposure increases the MD number for that experiment could increase or decrease, depending on whether the stress of the genes are increasing or decreasing. In general, unstressed hepatocytes tend to look quite similar to the healthy/normal group, while stressed hepatocytes tend to look quite different from the healthy/normal group and will have a higher MD number. In addition, the changes in correlation structure among the stressed hepatocytes strongly affect the MD number. In the case where a hepatocyte's MD number reaches a predetermined high threshold value, genes may start to mutate rapidly. If the MD number becomes similar to those of the healthy/normal group, the risk associated to exposure by a particular compound could be considered a low risk from exposure.
Referring now to FIG. 14, in one embodiment, 20 different experiments were conducted to build the healthy/normal group where the cells were not exposed to chemical, e.g. GW7647. FIG. 14 is an illustration of a snapshot of the database of Normal Unexposed Observation Data where the transcriptomics data of four cell lines—1153, 1154, 1156, and 1164—are provided across five time periods—2, 6, 12, 24, and 72 hours.
This baseline information is used to determine the amount of stress the exposed cells are experiencing from the reference cell pattern of unstressed cells—the healthy/normal group. All the data collected in the 120 different experiments and 465 variables, used the same units of measure consistent with measuring differential gene expression data. […]

As to `CC(C)(Sc1ccc(CCN(CCCCC2CCCCC2)C(=O)NC2CCCCC2)cc1)C(=O)O` [GW7647], the “share of the 192 significant genes showing up-regulation” value is reported as “Over 80%”. Also, the “threshold level (minimum exposure time with significant response)” value (0.001 μM of concentration) is recorded as “greater than 72 hours”. For the same molecule, the “threshold level (minimum exposure time with significant response)” value (0.01 μM of concentration) is on record as “greater than 72 hours”. Moreover, the “threshold level (minimum exposure time with significant response)” value (1 μM of concentration) was found to be 2 h. In addition, for the setting “10 μM of concentration”, the “threshold level (minimum exposure time with significant response)” value stood at 2 h. Also, where the note is “2 hours of exposure”, the “threshold level (minimum concentration with significant response, p 0.05)” value turned out to be 1 µM. Further, the “threshold level (minimum concentration with significant response, p 0.05)” value (6 hours of exposure) stood at 0.1 µM. Moreover, the “threshold level (minimum concentration with significant response, p 0.05)” value (12 hours of exposure) worked out at 0.1 µM. Moreover, the “threshold level (minimum concentration with significant response, p 0.05)” value (24 hours of exposure) came to 0.1 µM. In addition, the “threshold level (minimum concentration with significant response, p 0.05)” value (72 hours of exposure) was 0.1 µM. For the same molecule, the “MD number relative to baseline MD number of 18.05” value (72 hours of exposure, 10 μM, mean of four cell lines) stood at 8.4 times. Under “concentration level 0.01 μM”, the “stress versus liver cells not exposed (significance of MD number)” value is listed as “no significant difference in stress”. The “stress versus liver cells not exposed (significance of MD number)” value (concentration level 001 μM (so in the source)) was “no significant difference in stress”. Also, the “trend of MD number with time and concentration” value (human cell line 1153, similar for 1154, 1156, 1164) was “increases”. Further, the “trend of average MD number with exposure and concentration” value (mean of four human cell lines, 465 variables) is “increase”. Further, the “mean MD number” value (mean of four human cell lines, 72 hours of exposure, 10 μM, 465 variables) was 151.76. In addition, under “reduced sample set, only 10 genes, mean of four human cell lines”, the “trend of average MD number with exposure and concentration” value was “increase”. Further, the “genes of significance that exhibited a reaction, of 14,000 genes examined by micro-array” value (varying times and concentrations) came out at 192 genes.
